Some test systems named below: HOP-62 NSCLC; DMS 273 small cell lung; COLO 205 colon; U251 CNS; SN12C renal; DMS 114 small cell lung; HOP-18 NSCLC; M19-MEL melanoma; DU-145 prostate; BT-549 breast.
Test in all cases: NCI tumour cell line growth inhibition, 48 h

Several values for one entry are separate records, joined by “and”; a condition that tells them apart may be missing. Equal entries are not always repeated.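 Cells were grown in 96-well plates and exposed to each compound for 48 hours at five concentrations; endpoints were interpolated linearly between bracketing concentrations, or set to the highest concentration if not reached. GI50: concentration for 50% inhibition of growth. TGI is the concentration that stops growth completely.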

Take `CC(=O)Nc1ccc(/C=C/C(=O)c2sc(C(N)=S)nc2C)cc1`: the TGI in the test on HOP-62 NSCLC, in the test on DMS 273 small cell lung, in the test with COLO 205 colon, with U251 CNS, in the test on SN12C renal and in the test with DMS 114 small cell lung was greater than 100 µM in each case. The TGI with HOP-18 NSCLC and with M19-MEL melanoma was greater than 100 µM in each case.

On to `Nc1ccn([C@@H]2C=C(CO)[C@@H](O)[C@H]2O)c(=O)n1`, for which the GI50 in the test with HOP-62 NSCLC is 0.0593 µM and 0.0749 µM; in the test with COLO 205 colon, 0.0295 µM; in the test on DMS 114 small cell lung, 0.0677 µM; with DU-145 prostate it was 0.05 µM; with M19-MEL melanoma it was 0.275 µM. Besides, the TGI in the test with DMS 273 small cell lung was 218 µM and 62.5 µM; in the test on U251 CNS, 500 µM and > 625 µM; in the test on DMS 114 small cell lung, 449 µM and > 625 µM; in the test with HOP-18 NSCLC, 500 µM; in the test with DU-145 prostate it was 500 µM; in the test with BT-549 breast it was 113 µM. In addition, the TGI in the test with M19-MEL melanoma was 244 µM and > 625 µM.

For `COc1ccccc1NC(=O)C1=C(C)NC(C)=C(C(=O)Nc2ccccc2OC)C1c1ccccc1OC`, the TGI in the test on HOP-62 NSCLC, in the test on DMS 273 small cell lung, in the test on COLO 205 colon, in the test with U251 CNS, with SN12C renal and with DMS 114 small cell lung was greater than 100 µM in each case. In addition, the TGI in the test on HOP-18 NSCLC and in the test with M19-MEL melanoma was greater than 100 µM each time.

In the case of `COc1ccc(OC)c2cc(C3(C)SCCCS3)ccc12`, the TGI in the test with HOP-62 NSCLC, in the test with DMS 273 small cell lung, in the test on COLO 205 colon, with U251 CNS, in the test with SN12C renal and in the test with DMS 114 small cell lung was greater than 100 µM each time. The TGI in the test on HOP-18 NSCLC and in the test on M19-MEL melanoma was greater than 100 µM throughout.

These data come from PubChem BioAssay (NCI).
